Results taken from patent US10940188B2, “Compounds and methods for treatment and prevention of Flavivirus infection” (priority 2016, dated 2021).
Read-outs that look alike come from different tables or passages of the source.

Assays:
ZIKV PRVABC59 in hNPCs = test: ZIKV infection of hNPCs (NS1 Western blot); type: cell-based, Zika virus
Description: FIGS. 4A-1, 4A-2, 4B-1, 4B-2, 4B-3, 4C-1, 4C-2, 4D-1, and 4D-2. […] Cells were fixed 24 hours post infection and stained for ZIKVE (green) and DAPI (blue). Scale bar: 50 μm. Also shown is the quantification of ZIKV-infected astrocytes with multiple compound concentrations (FIG. 4A-2). Values represent mean±s.d. (n=6; ***P<0.001; One-way ANOVA). Shown in FIG. 4B-3 is virus production from compound-treated iPSC-derived human astrocytes (as in FIG. 2F) (n=3 cultures). Data represent mean±s.d. […] Shown are sample images and quantification (FIGS. 4B-1 and 4B-2). Values represent mean±s.d. (n=2; ***P<0.01; One-way ANOVA). […] Note that Emricasan and PHA-690509 inhibit the increased caspase-3 activity in a concentration-dependent manner in human astrocytes infected with FSS13025-ZIKV or MR766 ZIKV, and improve cell viability as measured by ATP production (FIGS. 4C-1, 4C-2, 4D-1, and 4D-2). […]
SNB-19 cells, BJ astrocytes, or hNPCs were seeded in 12-well plates at approximately 3e5 cells/well. […] Cells and supernatant were harvested 24-48 hours post infection and analyzed by western blot or IFA. Western blot bands were quantified and IFA images counted using ImageJ (NIH, Bethesda, Md.).
SNB-19, BJ astrocyte, or NPCs were seeded in 12-well plates at approximately 3e5 cells/well. […] Cells and supernatant were harvested 24-48 hours post infection and analyzed by western blot or IFA. […]

[1] = test system: ZIKV (FSS13025, PRVABC59, MR766) in SNB-19 cells; test: Anti-ZIKV activity in SNB-19 cells (NS1 Western blot, NS1 ELISA, immunofluorescence); type: cell-based, Zika virus; details: for time-of-addition effect on ZIKV infection / IC50: SNB-19 cells; for time-of-addition effect on ZIKV infection: PRVABC59, added 1 hour before or 4 hours after inoculation; for IC50: all three strains of ZIKV, read-out: IC50 of inhibition of ZIKV (NS1 read-out); for anti-ZIKV activity in SNB-19 cells: compound added 1 hour prior to infection
Description: FIGS. 2A-1, 2A-2, 2B-1, 2B-2, 2C-1, 2C-2, 2D-1, 2D-2, 2D-3, 2E-1, 2E-2, and 2F. […] Screening of select compounds for antiviral activity against ZIKV infection was carried out. Glioblastoma SNB-19 cells were treated with indicated compound at 10×AC50 (determined in the primary caspase screen) for 1 hour prior to inoculation with FSS-13025 (at MOI=1). Cells were harvested 24 hours post infection and analyzed by Western blot for ZIKV-NS1 or GAPDH (FIGS. 2A-1 and 2A-2). […] Three strains of virus (FSS-13025, PRVABC59, and MR766; MOI=1) were tested. Shown are sample western blot images (FIG. 2B-1) and ImageJ quantification (FIG. 2B-2). Values represent mean±s.d. (n=3; ***P<0.001; One-way ANOVA). Titration of Emricasan on SNB-19 cells for anti-ZIKV activity was conducted similarly (FIGS. 2C-1 and 2C-2). Values represent mean±s.d. […] Sample western blot (FIG. 2D-2) and ImageJ quantification (FIG. 2D-3) are shown for infection with the PRVABC59 strain (MOI=1). Results for additional strains are shown in FIGS. 6A-F. Values represent mean±s.d. (n=2; **P<0.01; ***P<0.001; One-way ANOVA). […] The concentration of NS1 in the medium of infected SNB-19 cells collected 24 hours post-infection was quantified by a ZIKV-NS1 ELISA kit (FIGS. 2E-1 and 2E-2). Values represent mean±s.d. (n=3; ***P<0.001; One-way ANOVA). […] SNB-19 cells were treated with each indicated compound at increasing concentrations for 1 hour before infection with PRVABC59 at a MOI=0.5 (n=3 cultures). Cell culture supernatant was collected 24 hours after infection, and infectious virions were quantified for focus-forming units (FFU) using Vero cells. Data represent mean±s.d.
FIGS. 3A, 3B, 3C-1, 3C-2, 3C-3, 3C-4, 3C-5, 3D-1, 3D-2, and 3E. […] SNB-19 cells were treated with the indicated compound at 92 μM for one hour prior to infection with FSS13025 or PRVABC59 (MOI=1). Cells were harvested 24 hours post infection and analyzed by western blot for ZIKV-NS1 or GAPDH. Shown are sample images and quantification (FIGS. 3D-1 and 3D-2). Values represent mean±s.d. (n=2; ***P<0.01; One-way ANOVA). Data were normalized to those obtained for DMSO-treated cells. Values represent mean±s.d. *P<0.05; **P<0.01; ***P<0.001; by one-way ANOVA, as compared to DMSO-treated cells.
FIGS. 18A, 18B, 18C-1, 18C-2, 18D, 18E, 18F, 18G-1, and 18G-2. […] 24 hours post infection, supernatants from SNB-19 cells were titrated onto naïve vero cells plated in a monolayer in 96-well plates for infectious focus-forming unit assay as previously described and focus forming units quantified. […] Immunofluorescence (IF) staining (FIG. 18C-1) and quantification (FIG. 18C-2) of ZIKV positive SNB-19 cells following infection with one of three ZIKV strains and treatment with emetine at 0.01, 0.1, or 1 μM. […] Drug was added at 1 μM either 1-hour prior to infection with PRVABC59-ZIKV, or 4-hours post infection with PRVABC59-ZIKV. […] Drug was added at 1 μM either 1-hour prior to infection with PRVABC59-ZIKV, or 4-hours post infection with PRVABC59-ZIKV.
Cells were harvested by trypsinization, pelleting, and subsequent lysis in 1× Laemlli buffer and boiled, or directly lysed in 1× Laemlli buffer and boiled. Antibodies used were anti-ZIKV NS1 (1:2000; BF-1225-36, BioFront Technologies, Tallahassee, Fla.) or GAPDH (Santa Cruz Biotechnology, Texas).

Structure (SMILES)	inhibition of ZIKV infection in hNPCs (ZIKV PRVABC59 in hNPCs)	time-of-addition effect on ZIKV infection [1]	IC50 ([1]; Zika virus)	anti-ZIKV activity in SNB-19 cells [1]	IC50 [1]
O=C(Nc1ccc([N+](=O)[O-])cc1Cl)c1cc(Cl)ccc1O [Niclosamide]	inhibited ZIKV^PR infection	effectively inhibited ZIKV infection when added either 1 hour before or 4 hours after virus inoculation	0.5 to 2 µM	significantly inhibited ZIKV infection in SNB-19 cells	
C[C@H](NC(=O)C(=O)Nc1ccccc1C(C)(C)C)C(=O)N[C@@H](CC(=O)O)C(=O)COc1c(F)c(F)cc(F)c1F [Emricasan]				no significant differences were found	
CC[C@H]1CN2CCc3cc(OC)c(OC)cc3[C@@H]2C[C@@H]1C[C@H]1NCCc2cc(OC)c(OC)cc21 [Emetine]		effective against ZIKV infection when added both before or after infection		reduces ZIKV infection in a dosage dependent manner	
CC(=O)Nc1ccc([C@H](C)C(=O)Nc2ncc(C(C)C)s2)cc1 [PHA-690509]	inhibited ZIKV^PR infection	effectively inhibited ZIKV infection when added either 1 hour before or 4 hours after virus inoculation		significantly inhibited ZIKV infection in SNB-19 cells	12 to 36 µM
